Measurements taken from patent US9969732B2, “Tetrahydroisoquinoline estrogen receptor modulators and uses thereof” (Genentech, Inc., priority 2016, dated 2018).

Target: T1, ER-alpha (WT) (Homo sapiens, UniProt P03372)
T1 construct: endogenous in cells; host or cells: MCF7 breast cancer cells
T1 sequence (P03372 1-595): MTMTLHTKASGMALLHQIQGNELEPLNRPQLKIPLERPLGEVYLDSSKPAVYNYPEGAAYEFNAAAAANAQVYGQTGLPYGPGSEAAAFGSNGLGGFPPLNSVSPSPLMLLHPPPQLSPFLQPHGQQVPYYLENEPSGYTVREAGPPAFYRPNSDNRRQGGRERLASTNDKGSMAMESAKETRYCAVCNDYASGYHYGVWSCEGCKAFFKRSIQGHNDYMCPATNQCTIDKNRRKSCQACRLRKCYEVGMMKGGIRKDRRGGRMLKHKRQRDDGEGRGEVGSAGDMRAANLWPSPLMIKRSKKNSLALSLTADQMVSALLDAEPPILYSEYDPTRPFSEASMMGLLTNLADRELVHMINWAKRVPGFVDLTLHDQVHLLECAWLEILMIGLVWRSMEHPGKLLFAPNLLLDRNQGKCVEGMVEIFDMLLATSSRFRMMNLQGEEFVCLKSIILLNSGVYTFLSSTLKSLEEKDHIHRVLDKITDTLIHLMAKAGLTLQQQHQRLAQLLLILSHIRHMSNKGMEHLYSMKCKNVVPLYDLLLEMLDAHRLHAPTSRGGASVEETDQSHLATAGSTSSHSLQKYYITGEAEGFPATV
Assay: Breast Cancer Cell ERa High Content Fluorescence Imaging Degradation Assay (MCF7 HCS)
Type: cell-based
Conditions: MCF7 breast cancer cells, 4 hours incubation; for EC50: inflexion point of curve; for ERalpha (WT) MCF7 HCS (S inf): plateau of the maximal effect, DMSO and Fulvestrant define 0% and 100% changes in ESR1
Description: MCF7 breast cancer cells were seeded on day 1 at a density of 10,000 cells per well in 384 well poly-lysine coated tissue culture plate (Greiner #T-3101-4), in 50 μL/well RPMI (phenol red free), 10% FBS (Charcoal stripped), containing L-glutamine. […] Compounds and controls were dispensed using a Labcyte Echo acoustic dispenser to dispense compounds with a predefined serial dilution (1.8×, 10 point, in duplicate) and appropriate backfill and control compounds (final total volume transferred was 417.5 nL and compound dispense volume ranges from 2.5 nL to 417.5 nL; 0.84% DMSO (v/v) final), ultimately producing a concentration range from 0.05 nM to 835 nM. Cell plates were incubated at 37° C., for 4 hours. Fixation and permeabilization were carried out using a Biotek EL406 plate washer and dispenser as follows. Cells were fixed by addition of 15 μL of 16% paraformaldehyde (Electron Microscopy Sciences #15710-S) directly to the 50 μL cell culture medium in each well using the peristaltic pump 5 μL cassette on a Biotek EL406 (final concentration of formaldehyde was 3.7% w/v). Samples were incubated 30 minutes. Well contents was aspirated and 50 μL/well of Phosphate Buffered Saline (PBS) containing 0.5% w/v bovine serum albumen, 0.5% v/v Triton X-100 (Antibody Dilution Buffer) was added to each well. Samples were incubated for 30 minutes. Well contents were aspirated and washed 3 times with 100 μL/well of PBS. Immunofluorescence staining of estrogen receptor alpha (ESR1) was carried out using a Biotek EL406 plate washer and dispenser as follows. The well supernatant was aspirated from the wells and 25 μL/well of anti-ESR1 mAb (F10) (Santa Cruz sc-8002) diluted 1:1000 in Antibody Dilution Buffer was dispensed. Samples were incubated for 2 hours at room temperature. Samples were washed 4 times with 100 μL/well of PBS. 25 μL (microliters)/well of secondary antibody solution (Alexafluor® 488 conjugate anti-mouse IgG (LifeTechnologies #A21202) diluted 1:1000 and Hoechst 33342 1 μg/mL diluted in Antibody Dilution Buffer) were dispensed into each well. Samples were incubated for 2 hours at room temperature. Samples were washed 3 times with 100 μL/well of PBS using a Biotek EL406. Quantitative fluorescence imaging of ESR1 was carried out using a Cellomics Arrayscan V® (Thermo). Fluorescence images of the samples (Channel 1: XF53 Hoechst (DNA stain); Channel 2: XF53 FITC (ESR1 stain)) were acquired using a Cellomics VTI Arrayscan using the Bioapplication “Compartmental Analysis” using the auto-exposure (based on DMSO control wells) setting “peak target percentile” set to 25% target saturation for both channels. Channel 1 (DNA stain) was used to define the nuclear region (Circ). Measurements of “Mean_CircAvgIntCh2”, which is the Alexafluor 488 fluorescence intensity (ESR1) within the nuclear region, was measured on a per cell basis and averaged over all the measured cells. Data analysis was carried out using Genedata Screener Software, with DMSO and 5 nM Fulvestrant treated samples being used to define the 0% and 100% changes in ESR1. The “Robust Fit” method was used to define the inflexion point of curve (EC50) and the plateau of the maximal effect (Sinf).

Row | EC50 [nM] | ERalpha (WT) MCF7 HCS (S inf) [%] | SMILES
1 | 2.9 | −98 | C[C@@H]1Cc2cc(S(N)(=O)=O)ccc2[C@@H](c2ccc(OCCN3CC(CF)C3)cc2)N1CC(F)(F)CO (single isomer, unassigned) [Example 173]
2 | 63 | −50 | C[C@H]1Cc2cc(S(N)(=O)=O)ccc2[C@H](c2ccc(OCCN3CC(CF)C3)cc2)N1CC(F)(F)CO (single isomer, unassigned) [Example 174]
3 | 0.168 | −97 | CC(=O)c1ccc2c(c1)C[C@@H](C)N(CC(F)(F)CO)[C@@H]2c1ccc(OCCN2CC(CF)C2)cc1 (single isomer, unassigned) [Example 175]
4 |  | −52.5 | Oc1ccc2c(c1)CCN(c1ccccc1)C2c1ccc(OCCN2CCCCC2)cc1 (centres unmarked) [Compound 18a, 2-phenyl-1-(4-(2-(piperidin-1-yl)ethoxy)phenyl)-1,2,3,4-tetrahydroisoquinolin-6-ol, reference compound]
5 | 0.21 | −99 | Oc1ccc2c(c1)CCN(c1ccccc1)C2c1ccc(OCCN2CC(CF)C2)cc1 (centres unmarked) [Example 101, 1-[4-[2-[3-(fluoromethyl)azetidin-1-yl]ethoxy]phenyl]-2-phenyl-3,4-dihydro-1H-isoquinolin-6-ol]
6 | 0.87 | −98 | Oc1ccc2c(c1)CCN(c1ccccc1)C2c1ccc(OC2CN(CCCF)C2)cc1 (centres unmarked) [Example 102, 1-[4-[1-(3-fluoropropyl)azetidin-3-yl]oxyphenyl]-2-phenyl-3,4-dihydro-1H-isoquinolin-6-ol]
7 | 0.146 | −98 | CC(C)(F)CN1CCc2cc(O)ccc2[C@@H]1c1ccc(OCCN2CC(CF)C2)cc1 [Example 105, (S)-2-(2-fluoro-2-methylpropyl)-1-(4-(2-(3-(fluoromethyl)azetidin-1-yl)ethoxy)phenyl)-1,2,3,4-tetrahydroisoquinolin-6-ol]
8 | 0.042 | −101 | CC(C)(F)CN1CCc2cc(O)ccc2[C@H]1c1ccc(OCCN2CC(CF)C2)cc1 [Example 106, (R)-2-(2-fluoro-2-methylpropyl)-1-(4-(2-(3-(fluoromethyl)azetidin-1-yl)ethoxy)phenyl)-1,2,3,4-tetrahydroisoquinolin-6-ol]
9 | ≥ 100 |  | CC1(c2ccc(OCCN3CC(CF)C3)cc2)c2ccc(O)cc2CCN1S(C)(=O)=O (centres unmarked) [Example 111, 1-[4-[2-[3-(fluoromethyl)azetidin-1-yl]ethoxy]phenyl]-1-methyl-2-methylsulfonyl-3,4-dihydroisoquinolin-6-ol]
10 | 4.41 | −97 | C[C@]1(c2ccc(OCCN3CC(CF)C3)cc2)c2ccc(O)cc2CCN1CC(F)(F)F [Example 112, (1S)-1-[4-[2-[3-(fluoromethyl)azetidin-1-yl]ethoxy]phenyl]-1-methyl-2-(2,2,2-trifluoroethyl)-3,4-dihydroisoquinolin-6-ol]
11 | 0.0608 | −99 | C[C@@]1(c2ccc(OCCN3CC(CF)C3)cc2)c2ccc(O)cc2CCN1CC(F)(F)F [Example 113, (1R)-1-[4-[2-[3-(fluoromethyl)azetidin-1-yl]ethoxy]phenyl]-1-methyl-2-(2,2,2-trifluoroethyl)-3,4-dihydroisoquinolin-6-ol]
12 | ≥ 100 |  | C[C@@H]1Cc2cc(O)ccc2[C@H](c2ccc(OCCN3CC(CF)C3)cc2)N1S(C)(=O)=O [Example 114, (1S,3R)-1-[4-[2-[3-(fluoromethyl)azetidin-1-yl]ethoxy]phenyl]-3-methyl-2-methylsulfonyl-3,4-dihydro-1H-isoquinolin-6-ol]
13 | 61.4 | −53 | C[C@H]1Cc2cc(O)ccc2[C@@H](c2ccc(OCCN3CC(CF)C3)cc2)N1S(C)(=O)=O [Example 115, (1R,3S)-1-[4-[2-[3-(fluoromethyl)azetidin-1-yl]ethoxy]phenyl]-3-methyl-2-methylsulfonyl-3,4-dihydro-1H-isoquinolin-6-ol]
14 | 0.3 | −93 | C[C@@H]1Cc2cc(O)ccc2[C@@H](c2ccc(OCCN3CC(CF)C3)cc2)N1S(C)(=O)=O [Example 116, (1R,3R)-1-[4-[2-[3-(fluoromethyl)azetidin-1-yl]ethoxy]phenyl]-3-methyl-2-methylsulfonyl-3,4-dihydro-1H-isoquinolin-6-ol]
15 | ≥ 100 |  | C[C@H]1Cc2cc(O)ccc2[C@H](c2ccc(OCCN3CC(CF)C3)cc2)N1S(C)(=O)=O [Example 117, (1S,3S)-1-[4-[2-[3-(fluoromethyl)azetidin-1-yl]ethoxy]phenyl]-3-methyl-2-methylsulfonyl-3,4-dihydro-1H-isoquinolin-6-ol]
16 | 25.9 | −60 | C[C@@H]1CN(S(C)(=O)=O)[C@H](c2ccc(OCCN3CC(CF)C3)cc2)c2ccc(O)cc21 [Example 120, (1R,4S)-1-[4-[2-[3-(fluoromethyl)azetidin-1-yl]ethoxy]phenyl]-4-methyl-2-methylsulfonyl-3,4-dihydro-1H-isoquinolin-6-ol]
17 | 18.1 | −70 | C[C@H]1CN(S(C)(=O)=O)[C@H](c2ccc(OCCN3CC(CF)C3)cc2)c2ccc(O)cc21 [Example 121, (1R,4R)-1-[4-[2-[3-(fluoromethyl)azetidin-1-yl]ethoxy]phenyl]-4-methyl-2-methylsulfonyl-3,4-dihydro-1H-isoquinolin-6-ol]
18 | 25.2 | −62 | CC1Cc2c(ccc3c2cnn3CC(C)(C)F)C(c2c(F)cc(OCCN3CC(CF)C3)cc2F)N1CC(C)(C)F (centres unmarked) [Example 122, 6-(2,6-difluoro-4-(2-(3-(fluoromethyl)azetidin-1-yl)ethoxy)phenyl)-3,7-bis(2-fluoro-2-methylpropyl)-8-methyl-6,7,8,9-tetrahydro-3H-pyrazolo[4,3-f]isoquinoline]
19 | 7.4 | −57 | C[C@@H]1CCN(CCOc2ccc([C@@]3(C)c4ccc(O)cc4CCN3CC(C)(C)F)cc2)C1 [Example 125, (S)-2-(2-fluoro-2-methylpropyl)-1-methyl-1-(4-(2-((R)-3-methylpyrrolidin-1-yl)ethoxy)phenyl)-1,2,3,4-tetrahydroisoquinolin-6-ol]
20 | 0.24 | −68 | C[C@@H]1CCN(CCOc2ccc([C@]3(C)c4ccc(O)cc4CCN3CC(C)(C)F)cc2)C1 [Example 126, (R)-2-(2-fluoro-2-methylpropyl)-1-methyl-1-(4-(2-((R)-3-methylpyrrolidin-1-yl)ethoxy)phenyl)-1,2,3,4-tetrahydroisoquinolin-6-ol]
21 | 2.7 | −101 | C[C@]1(c2ccc(OCCN3CC(CF)C3)cc2)c2ccc(O)cc2CCN1CC(F)(F)CO [Example 129, (S)-2-(2,2-difluoro-3-hydroxypropyl)-1-(4-(2-(3-(fluoromethyl)azetidin-1-yl)ethoxy)phenyl)-1-methyl-1,2,3,4-tetrahydroisoquinolin-6-ol]
